{
  "source": "PubChem BioAssay AID1259410",
  "about": "(Chemical Carcinogenesis Research Information System (CCRIS), 2018)",
  "origin": "cited, not measured here",
  "system": "rodent tumor promotion studies, tumor incidence",
  "assay": "CCRIS tumor promotion studies",
  "data": [
    {"molecule": "O=C1NS(=O)(=O)c2ccccc21", "values": [
      {"measurement": "outcome", "setting": "Carcinogen: FREEZE ULCERATION, Doses [Promoter]: 0, 5% IN DIET BEGINNING IMMEDIATELY, 2, 4, 6 OR 18 WK AFTER ULCERATION OF THE BLADDER BY FREEZING AND CONTINUING FOR DUR, Route [Promoter]: ORAL, Species: RAT, Strain/Sex: F344/MALE", "value": "urinary bladder: transitional cell carcinoma"},
      {"measurement": "outcome", "setting": "Carcinogen: METHYLNITROSOUREA, Doses [Carcinogen]: BLADDER IMP, Doses [Promoter]: IN DIET, Route [Carcinogen]: BLADDER IMPLANT, Route [Promoter]: ORAL, Species: RAT, Strain/Sex: WISTAR/FEMALE", "value": "urinary bladder"},
      {"measurement": "outcome", "setting": "Carcinogen: N-(4-(5-NITRO-2-FURYL)-2-THIAZOLYL)FORMAMIDE, 24554-26-5, Doses [Carcinogen]: 0.2% IN AIN-76A DIET FOR 4 WK, Doses [Promoter]: 0, 5% IN PROLAB DIET BEGINNING 1 WK POST CARCINOGEN TREATMENT AND CONTINUING FOR 100 WK (STUDY DURATION: 105 WK), Route [Carcinogen]: ORAL, Route [Promoter]: ORAL, Species: RAT, Strain/Sex: F344/MALE", "value": "bladder: papilloma and carcinoma"},
      {"measurement": "outcome", "setting": "Carcinogen: N-(4-(5-NITRO-2-FURYL)-2-THIAZOLYL)FORMAMIDE, 24554-26-5, Doses [Carcinogen]: 0.2% IN PROLAB DIET FOR 4 WK, Doses [Promoter]: 0, 5% IN PROLAB DIET BEGINNING 1 WK POST CARCINOGEN TREATMENT AND CONTINUING FOR 100 WK (STUDY DURATION: 105 WK), Route [Carcinogen]: ORAL, Route [Promoter]: ORAL, Species: RAT, Strain/Sex: F344/MALE", "value": "bladder: papilloma and carcinoma"},
      {"measurement": "outcome", "setting": "Carcinogen: N-(4-(5-NITRO-2-FURYL)-2-THIAZOLYL)FORMAMIDE, Doses [Carcinogen]: DIET, Doses [Promoter]: IN DIET, Route [Carcinogen]: ORAL, Route [Promoter]: ORAL, Species: RAT, Strain/Sex: F344/MALE", "value": "urinary bladder: carcinoma"},
      {"measurement": "outcome", "setting": "Carcinogen: N-BUTYL-N-4(HYDROXYBUTYL)NITROSAMINE, 3817-11-6, Doses [Carcinogen]: 0.05% IN DRINKING WATER FOR 2 WK, Doses [Promoter]: 0, 5% IN DIET STARTING POST CARCINOGEN AND CONTINUING FOR 22 WK, LEFT URETER LIGATED 8 D POST CARCINOGEN (STUDY DURATION, Route [Carcinogen]: ORAL, Route [Promoter]: ORAL, Species: RAT, Strain/Sex: F344/MALE", "value": "bladder: papilloma"},
      {"measurement": "outcome", "setting": "Carcinogen: N-BUTYL-N-(4-HYDROXYBUTYL)NITROSAMINE, 3817-11-6, Doses [Carcinogen]: 0.05% IN DRINKING WATER FOR 4 WK, Doses [Promoter]: 0, 5% IN DIET FOR 32 WK POST CARCINOGEN DOSE (STUDY DURATION: 36 WK), Route [Carcinogen]: ORAL, Route [Promoter]: ORAL, Species: RAT, Strain/Sex: F344/MALE", "value": "bladder: carcinoma or papilloma"},
      {"measurement": "outcome", "setting": "Carcinogen: N-[4-(5-NITRO-2-FURYL)-2-THIAZOLYL]FORMAMIDE, 24554-26-5, Doses [Carcinogen]: 0.2% IN DIET FOR 6 WK, Doses [Promoter]: 0, 5% IN PROLAB DIET FOR 72 WK BEGINNING POST CARCINOGEN TREATMENT (STUDY DURATION: 78 WK), Route [Carcinogen]: ORAL, Route [Promoter]: ORAL, Species: RAT, Strain/Sex: F344/MALE", "value": "urinary bladder: carcinoma, carcinoma or papilloma"},
      {"measurement": "outcome", "setting": "Carcinogen: N-[4-(5-NITRO-2-FURYL)-2-THIAZOLYL]FORMAMIDE, Doses [Carcinogen]: 0.2% IN DIET FOR 6 WK, Doses [Promoter]: 0, 3% IN PROLAB DIET FOR 72 WK BEGINNING POST CARCINOGEN TREATMENT (STUDY DURATION: 78 WK), Route [Carcinogen]: ORAL, Route [Promoter]: ORAL, Species: RAT, Strain/Sex: F344/MALE", "value": "urinary bladder: carcinoma, carcinoma or papilloma"}
    ]},
    {"molecule": "H-HADGVFTSDYSRLLGQLSAKKYLESLI-NH2", "values": [
      {"measurement": "outcome", "setting": "Carcinogen: AZOXYMETHANE, 25843-45-2, Doses [Carcinogen]: 7.4 MG/KG BW IN 0.9% SALINE 1/WK FOR 10 WK, Doses [Promoter]: 0, 4 NMOL/KG BW IN OLIVE OIL 1/2 D FOR DURATION OF STUDY (STUDY DURATION: 35 WK), Route [Carcinogen]: SUBCUTANEOUS, Route [Promoter]: SUBCUTANEOUS, Species: RAT, Strain/Sex: WISTAR/MALE, FEMALE", "value": "colon: tumor"}
    ]},
    {"molecule": "CCOC(N)=O", "values": [
      {"measurement": "outcome", "setting": "Carcinogen: 7,12-DIMETHYLBENZ(A)ANTHRACENE, 57-97-6, Doses [Carcinogen]: 51.2 UG IN 100 UG ACETONE ONCE, Doses [Promoter]: 0, 10% IN ACETONE 2/WK FOR 50 WK BEGINNING 2 WK POST CARCINOGEN DOSE (STUDY DURATION: 52 WK), Route [Carcinogen]: DERMAL, Route [Promoter]: DERMAL, Species: MOUSE, Strain/Sex: HR/HR/MALE,FEMALE", "value": "skin: papilloma"}
    ]},
    {"molecule": "C[C@]12CC[C@@H]3c4ccc(O)cc4CC[C@H]3[C@@H]1CCC2=O", "values": [
      {"measurement": "outcome", "setting": "Carcinogen: N-METHYL-N-NITROSOUREA, 684-93-5, Doses [Carcinogen]: 1 MG/100 G BW INJECTED INTO LEFT UTERINE TUBE ONCE, Doses [Promoter]: 0, 25 PPM IN DIET BEGINNING 1 WK POST CARCINOGEN TREATMENT (STUDY DURATION: 30 WK), Route [Carcinogen]: INJECTION, Route [Promoter]: ORAL, Species: MOUSE, Strain/Sex: ICR/FEMALE", "value": "uterus (left): adenocarcinoma"}
    ]},
    {"molecule": "CCCCCCCCCC(=O)O[C@@]12C[C@@H](C)[C@@]3(O)[C@@H](C=C(CO)C[C@]4(O)C(=O)C(C)=C[C@@H]34)[C@@H]1C2(C)C", "values": [
      {"measurement": "outcome", "setting": "Carcinogen: 7,12-DIMETHYLBENZ[A]ANTHRACENE, 57-97-6, Doses [Carcinogen]: 100 NMOL ONCE, Doses [Promoter]: 0, 40 NMOL 2/WK FOR 48 WK (STUDY DURATION: 48 WK), Route [Carcinogen]: DERMAL, Route [Promoter]: DERMAL, Species: MOUSE, Strain/Sex: NMRI", "value": "skin: tumor"}
    ]},
    {"molecule": "O=C(O)/C=C/c1ccc(O)c(O)c1", "values": [
      {"measurement": "outcome", "setting": "Carcinogen: DIETHYLNITROSAMINE, 55-18-5, N-METHYLNITROSOUREA, 684-93-5, 1,2-DIMETHYLHYDRAZINE, 540-73-8, N-BUTYL-N-(4-HYDROXYBUTYL)N, Carcinogen: DIETHYLNITROSAMINE, 55-18-5, N-METHYLNITROSOUREA, 684-93-5, 1,2-DIMETHYLHYDRAZINE, 540-73-8, N-BUTYL-N-(4-HYDROXYBUTYL)N, Doses [Carcinogen]: 100 MG/KG BW DEN ONCE FOLLOWED BY 20 MG/KG BW MNU 2/WK FOR 2 WK THEN 40 MG/KG BW DMH 2/WK FOR THE NEXT 2WK, 0.05% BBN IN, Doses [Promoter]: 0, 0.4% IN DIET FOR 24 WK BEGINNING POST CARCINOGEN TREATMENT (STUDY DURATION: 28 WK), Route [Carcinogen]: INTRAPERITONEAL, INTRAPERITONEAL, SUBCUTANEOUS, ORAL, Route [Carcinogen]: INTRAPERITONEAL, INTRAPERITONEAL, SUBCUTANEOUS, ORAL, Route [Promoter]: ORAL, Species: RAT, Strain/Sex: F344/MALE", "value": "forestomach: papilloma"},
      {"measurement": "outcome", "setting": "Carcinogen: N-METHYL-N'-NITRO-N-NITROSOGUANIDINE, 70-25-7, Doses [Carcinogen]: 150 MG/KG BW IN 50% DMSO ONCE, Doses [Promoter]: 1% IN DIET BEGINNING 1 WK POST CARCINOGEN TREATMENT FOR 51 WK (STUDY DURATION: 52 WK), Route [Carcinogen]: GAVAGE, Route [Promoter]: ORAL, Species: RAT, Strain/Sex: F344/MALE", "value": "forestomach: papilloma, squamous cell carcinoma"}
    ]}
  ]
}
